Like-named read-outs stand apart in the source and are kept apart here.
Experiments:
[1] = molecular target: T1, α1AR (β-arrestin signaling) (Homo sapiens, UniProt P35348); test: α1AR/β-arrestin-2 LinkLight assay; assay type: cell-based; conditions: α1A-TEV/β-arrestin-pLuc cells, Figure 3f; for EC50: adrenergic agonist panel, read-out: potency (rank order) in β-arrestin signaling
T1 construct: Full-length complementary DNAs of human GPCRs without stop codons were subcloned in frame with the tobacco etch virus (TEV) protease vector; expressed in transfected cells
T1 sequence (P35348 1-466): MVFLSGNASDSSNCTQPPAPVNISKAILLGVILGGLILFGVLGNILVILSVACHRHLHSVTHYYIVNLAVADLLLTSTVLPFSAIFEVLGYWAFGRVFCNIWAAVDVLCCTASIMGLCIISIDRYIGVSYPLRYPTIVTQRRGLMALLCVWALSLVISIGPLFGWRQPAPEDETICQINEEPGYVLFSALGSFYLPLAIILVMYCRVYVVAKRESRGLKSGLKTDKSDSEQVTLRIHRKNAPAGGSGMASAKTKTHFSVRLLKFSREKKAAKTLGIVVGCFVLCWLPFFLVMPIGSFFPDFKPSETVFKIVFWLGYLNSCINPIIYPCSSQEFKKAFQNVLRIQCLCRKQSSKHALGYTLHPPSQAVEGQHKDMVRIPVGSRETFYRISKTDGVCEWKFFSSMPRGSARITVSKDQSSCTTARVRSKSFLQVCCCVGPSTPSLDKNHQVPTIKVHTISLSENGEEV
Protocol: (§1) Multiple stable clones were selected for evaluation.
(§2) Cells were cultured overnight.
The GPCR/β-arrestin-2 LinkLight cells were seeded in white 384-well plates.

α1AR/14-3-3 interaction = test: Kinase inhibitor response in α1AR/14-3-3ε LinkLight cells; assay type: cell-based, human; conditions: preincubation of α1AR/14-3-3 cells; Figure 3c
Raf-1/14-3-3 interaction = test: Kinase inhibition of FBS-stimulated Raf-1/14-3-3 interaction in U2OS cells; assay type: cell-based; conditions: 7.5% FBS stimulation, Figure 4d
Protocol: as §2
The LinkLight cells were cultured in a white 384-well plate overnight. The culture medium was then replaced with serum-free DMEM.

[2] = system: Raf-1/14-3-3ε interaction; test: GPCR agonist-induced Raf-1/14-3-3ε interaction LinkLight assay in U2OS cells; assay type: cell-based; conditions: U2OS stably co-expressing Raf-1-TEV and 14-3-3ε-pLuc, endogenous GPCRs; Figure 4a
From the text: (§3) Full-length complementary DNAs of human GPCRs without stop codons were subcloned in frame with the tobacco etch virus (TEV) protease vector as previously described.[20],[21] The β-arrestin-2-permuted luciferase (β-arr-2-pLuc) expression plasmid was also previously described.[20],[21] 14-3-3ɛ and 14-3-3ζ full-length complementary DNAs without stop codons were used to replace β-arrestin-2 in the β-arr-2-pLuc for construction of the 14-3-3ɛ-pLuc and 14-3-3ζ-pLuc expression plasmids. […] Multiple stable clones were selected for evaluation.
The LinkLight cells stably expressing both GPCR-TEV and 14-3-3ε-pLuc were seeded into a 384-well white plate (Becton Dickinson, Franklin Lakes, NJ, USA) at 20 000 cells per well with 30 μl of regular medium. Cells were cultured overnight. The following day, the culture medium was replaced with 15 μl of serum-free DMEM, followed by the addition of 5 μl of compounds/drugs. Agonists were added as serial dilutions in serum-free DMEM from 10 mM dimethylsulfoxide stocks. For antagonist inhibition assays, the medium was replaced with 10 μl of serum-free DMEM. […] An equal volume of Bright-Glo (Promega, Madison, WI, USA), One-Glo (Promega), BriteLite (PerkinElmer, Billerica, MA, USA) or NeoLite (PerkinElmer) luciferase detection reagent was added for a 5-min incubation. The luminescence signals were determined using a luminescence plate reader (EnSpire or TopCount). Alternatively, after compound incubation, the culture medium was replaced with 10 μl of luciferase detection reagent, and luminescence signals were recorded.
The Raf-1/14-3-3ε LinkLight cells were seeded in white 384-well plates.

[3] = molecular target: T2, muscarinic cholinergic receptor 5 (CHRM5) (Homo sapiens, UniProt P08912); test: CHRM5/14-3-3ε LinkLight assay, agonist mode; assay type: cell-based; conditions: stable CHRM5/14-3-3 LinkLight cells; Figure 2e
T2 construct: Full-length complementary DNAs of human GPCRs without stop codons were subcloned in frame with the tobacco etch virus (TEV) protease vector; expressed in transfected cells
T2 sequence (P08912 1-532): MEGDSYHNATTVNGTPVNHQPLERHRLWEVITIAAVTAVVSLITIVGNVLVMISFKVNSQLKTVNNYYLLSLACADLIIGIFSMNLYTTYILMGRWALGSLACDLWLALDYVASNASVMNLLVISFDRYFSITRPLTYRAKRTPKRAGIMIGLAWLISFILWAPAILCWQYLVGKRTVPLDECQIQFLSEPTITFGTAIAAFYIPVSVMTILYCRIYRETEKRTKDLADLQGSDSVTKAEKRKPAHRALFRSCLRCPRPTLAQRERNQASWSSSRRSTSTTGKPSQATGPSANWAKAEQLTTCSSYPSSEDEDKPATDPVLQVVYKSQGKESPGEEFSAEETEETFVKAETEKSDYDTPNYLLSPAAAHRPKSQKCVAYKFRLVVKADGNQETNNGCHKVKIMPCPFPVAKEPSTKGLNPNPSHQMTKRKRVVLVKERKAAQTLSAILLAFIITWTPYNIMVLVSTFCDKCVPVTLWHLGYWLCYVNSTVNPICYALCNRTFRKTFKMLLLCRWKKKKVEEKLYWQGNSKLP
From the text: as §3
(§4) The LinkLight cells stably expressing both GPCR-TEV and 14-3-3ε-pLuc were seeded into a 384-well white plate (Becton Dickinson, Franklin Lakes, NJ, USA) at 20 000 cells per well with 30 μl of regular medium. Cells were cultured overnight. The following day, the culture medium was replaced with 15 μl of serum-free DMEM, followed by the addition of 5 μl of compounds/drugs. Agonists were added as serial dilutions in serum-free DMEM from 10 mM dimethylsulfoxide stocks. For antagonist inhibition assays, the medium was replaced with 10 μl of serum-free DMEM. […] The luminescence signals were determined using a luminescence plate reader (EnSpire or TopCount). Alternatively, after compound incubation, the culture medium was replaced with 10 μl of luciferase detection reagent, and luminescence signals were recorded. […]

[4] = molecular target: T3, Alpha adrenergic receptor 1A (α1AR) (Homo sapiens, UniProt P35348); test: α1AR/14-3-3ε LinkLight assay (agonist-induced GPCR-mediated 14-3-3 signaling); assay type: cell-based
T3 construct: Full-length complementary DNAs of human GPCRs without stop codons were subcloned in frame with the tobacco etch virus (TEV) protease vector; expressed in transfected cells
T3 sequence (P35348 1-466): T1 sequence (P35348 1-466)
Protocol: as §1, §2

[5] = molecular target: T2, muscarinic cholinergic receptor 5 (CHRM5); test: CHRM5/14-3-3ε LinkLight assay, antagonist mode; assay type: cell-based; conditions: preincubation with antagonist, then 3 μM carbachol; Figure 2f
From the text: as §3, §4

[6] = molecular target: T4, β3 adrenergic receptor (ADRB3) (Homo sapiens, UniProt P13945); test: ADRB3/14-3-3 LinkLight assay; assay type: cell-based; conditions: HEK293 stably expressing ADRB3-TEV and 14-3-3-pLuc; Figure 3d
T4 construct: Full-length complementary DNAs of human GPCRs without stop codons were subcloned in frame with the tobacco etch virus (TEV) protease vector; expressed in transfected cells
Protocol: as §1, §2

[7] = α1A-TEV/14-3-3ε-pLuc cells, adrenergic agonist panel, Figure 3e, read-out: potency (rank order) in the 14-3-3 signaling assay

T4 sequence (P13945 whole entry): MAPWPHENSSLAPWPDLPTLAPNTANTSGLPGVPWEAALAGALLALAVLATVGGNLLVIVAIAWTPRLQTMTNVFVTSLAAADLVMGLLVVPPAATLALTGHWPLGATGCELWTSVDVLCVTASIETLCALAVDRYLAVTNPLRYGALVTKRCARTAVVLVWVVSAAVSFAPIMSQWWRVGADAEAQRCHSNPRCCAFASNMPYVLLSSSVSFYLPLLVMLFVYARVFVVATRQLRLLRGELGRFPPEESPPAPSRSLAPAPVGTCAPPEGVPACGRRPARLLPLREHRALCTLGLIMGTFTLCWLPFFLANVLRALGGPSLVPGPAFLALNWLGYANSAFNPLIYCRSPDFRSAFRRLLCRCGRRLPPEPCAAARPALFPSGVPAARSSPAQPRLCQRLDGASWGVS

C[C@H](Cc1ccc(OCC(=O)O)cc1)NC[C@H](O)c1cccc(Cl)c1 [BRL37344]
agonist behaviour in β-arrestin signaling versus 14-3-3 signaling [1]: much weaker agonists of β-arrestin signaling than of 14-3-3 signaling

Cn1c(CNc2cccc(C(=O)NCc3ccccc3C(F)(F)F)c2)nnc1-c1ccncc1 [CMPD101]
inhibition of cirazoline-stimulated α1AR/14-3-3 signals (α1AR/14-3-3 interaction): did not inhibit

O=C1Nc2ccc(I)cc2/C1=C/c1cc(Br)c(O)c(Br)c1 [GW5074]
inhibition of FBS-stimulated Raf-1/14-3-3 interaction signals (Raf-1/14-3-3 interaction): very weak inhibition activity

O=S(=O)(NCCNC/C=C/c1ccc(Br)cc1)c1cccc2cnccc12 [H-89]
inhibition of cirazoline-stimulated α1AR/14-3-3 signals (α1AR/14-3-3 interaction): did not inhibit

CCNC(=O)[C@H]1O[C@@H](n2cnc3c(N)ncnc32)[C@H](O)[C@@H]1O [NECA, 5'-N-ethylcarboxamidoadenosine]
Raf-1/14-3-3 interaction signals on stimulation with GPCR agonist [2]: concentration-dependent Raf-1/14-3-3 interaction signals

O=C1CCCN1CC#CCN1CCCC1 [Oxotremorine, oxotremorine]
agonist behaviour for 14-3-3 signaling (full/partial) [3]: full agonists

Brc1c(NC2=NCCN2)ccc2nccnc12 [UK14304]
EC50 [4, 7]: 0.0552 µM
EC50 [1]: 0.78 µM

CNC[C@H](O)c1ccc(O)c(O)c1 [adrenaline]
Raf-1/14-3-3 interaction signals on stimulation with GPCR agonist [2]: concentration-dependent Raf-1/14-3-3 interaction signals

CN1[C@@H]2CC[C@H]1C[C@@H](OC(=O)C(CO)c1ccccc1)C2 (stereo partly shown) [atropine]
inhibition of agonist-induced CHRM5-mediated 14-3-3 signals [5]: antagonist concentration-dependent inhibition signals

C[N+](C)(C)CCOC(N)=O [carbachol]
agonist behaviour for 14-3-3 signaling (full/partial) [3]: full agonists

c1ccc(C2CC2)c(OCC2=NCCN2)c1 [cirazoline]
EC50 ([4]; HEK293 stably co-expressing α1A-TEV/14-3-3ε-pLuc, Figure 2a, read-out: EC50, α1AR-mediated 14-3-3 signaling): 0.0095 µM
EC50 [4, 7]: 0.00172 µM
EC50 [1]: 0.0184 µM
ADRB3/14-3-3 interaction signals [6]: very weak signals even at 10 μM

NCCc1ccc(O)c(O)c1 [dopamine]
Raf-1/14-3-3 interaction signals on stimulation with GPCR agonist [2]: concentration-dependent Raf-1/14-3-3 interaction signals

N=C(N)NC(=O)Cc1c(Cl)cccc1Cl [guanfacine]
EC50 [4, 7]: 0.0124 µM
EC50 [1]: 1.61 µM
ADRB3/14-3-3 interaction signals [6]: very weak signals even at 10 μM

CC(C)NCC(O)c1ccc(O)c(O)c1 (stereo not shown) [isoproterenol]
agonist behaviour in β-arrestin signaling versus 14-3-3 signaling [1]: much weaker agonists of β-arrestin signaling than of 14-3-3 signaling
ADRB3/14-3-3 interaction signals [6]: promoted ADRB3/14-3-3 interaction signals in a concentration-dependent manner

COc1ccc(OC)c(C(O)C(C)N)c1 (stereo not shown) [methoxamine]
EC50 [4, 7]: 0.0111 µM
EC50 [1]: 0.318 µM

CN1[C@@H]2C[C@@H](OC(=O)[C@H](CO)c3ccccc3)C[C@H]1[C@@H]1O[C@@H]12 [scopolamine]
inhibition of agonist-induced CHRM5-mediated 14-3-3 signals [5]: antagonist concentration-dependent inhibition signals

CCCS(=O)(=O)Nc1ccc(F)c(C(=O)c2c[nH]c3ncc(-c4ccc(Cl)cc4)cc23)c1F [vemurafenib]
inhibition of FBS-stimulated Raf-1/14-3-3 interaction signals (Raf-1/14-3-3 interaction): partial inhibition
